Source: ChEMBL document CHEMBL5226279, “Mercaptoacetamide: A promising zinc-binding group for the discovery of selective histone deacetylase 6 inhibitors” (Eur J Med Chem, 2021)
In brackets after ≈: the same amount, converted by molar mass. Values belong to the molecule of their own block, whether it stands above or below them.

Key:
[1] = AUC in mouse at 400 mg/kg, ip; type: ADME, organism-based; set-up: dose 400 mg/kg, route ip; conditions: in vivo
[2] = Stability in rat plasma assessed as half life; type: ADME, cell-free
[3] = Antialzheimer activity in rat Primary cortical neurons assessed as reduction in amyloid beta 40 level incubated for 24 hrs by ELISA relative to control; type: functional, Cortical neurone; set-up: scale not given: the % may be the effect or the level left
[4] = Stability in dog liver microsomes assessed as half life; type: ADME, Canis lupus familiaris, Microsome
[5] = Solubility of compound in HCl at pH 1.2 at 37 degreeC measured after 24 hrs; type: physicochemical
[6] = Apparent permeability across basolateral to apical side in human Caco-2 cells; type: ADME, cell-based
[7] = Stability in human liver microsomes assessed as half life; type: ADME, Microsome
[8] = Apparent permeability across apical to basolateral side in human Caco-2 cells; type: ADME, cell-based
[9] = Lipophilicity, logD of the compound at 37 degreeC; type: physicochemical; conditions: octanol/water
[10] = molecular target: T1, Protein deacetylase HDAC6 (Homo sapiens, UniProt Q9UBN7); experiment: Inhibition of HDAC6 (unknown origin)
T1 sequence (Q9UBN7 whole entry): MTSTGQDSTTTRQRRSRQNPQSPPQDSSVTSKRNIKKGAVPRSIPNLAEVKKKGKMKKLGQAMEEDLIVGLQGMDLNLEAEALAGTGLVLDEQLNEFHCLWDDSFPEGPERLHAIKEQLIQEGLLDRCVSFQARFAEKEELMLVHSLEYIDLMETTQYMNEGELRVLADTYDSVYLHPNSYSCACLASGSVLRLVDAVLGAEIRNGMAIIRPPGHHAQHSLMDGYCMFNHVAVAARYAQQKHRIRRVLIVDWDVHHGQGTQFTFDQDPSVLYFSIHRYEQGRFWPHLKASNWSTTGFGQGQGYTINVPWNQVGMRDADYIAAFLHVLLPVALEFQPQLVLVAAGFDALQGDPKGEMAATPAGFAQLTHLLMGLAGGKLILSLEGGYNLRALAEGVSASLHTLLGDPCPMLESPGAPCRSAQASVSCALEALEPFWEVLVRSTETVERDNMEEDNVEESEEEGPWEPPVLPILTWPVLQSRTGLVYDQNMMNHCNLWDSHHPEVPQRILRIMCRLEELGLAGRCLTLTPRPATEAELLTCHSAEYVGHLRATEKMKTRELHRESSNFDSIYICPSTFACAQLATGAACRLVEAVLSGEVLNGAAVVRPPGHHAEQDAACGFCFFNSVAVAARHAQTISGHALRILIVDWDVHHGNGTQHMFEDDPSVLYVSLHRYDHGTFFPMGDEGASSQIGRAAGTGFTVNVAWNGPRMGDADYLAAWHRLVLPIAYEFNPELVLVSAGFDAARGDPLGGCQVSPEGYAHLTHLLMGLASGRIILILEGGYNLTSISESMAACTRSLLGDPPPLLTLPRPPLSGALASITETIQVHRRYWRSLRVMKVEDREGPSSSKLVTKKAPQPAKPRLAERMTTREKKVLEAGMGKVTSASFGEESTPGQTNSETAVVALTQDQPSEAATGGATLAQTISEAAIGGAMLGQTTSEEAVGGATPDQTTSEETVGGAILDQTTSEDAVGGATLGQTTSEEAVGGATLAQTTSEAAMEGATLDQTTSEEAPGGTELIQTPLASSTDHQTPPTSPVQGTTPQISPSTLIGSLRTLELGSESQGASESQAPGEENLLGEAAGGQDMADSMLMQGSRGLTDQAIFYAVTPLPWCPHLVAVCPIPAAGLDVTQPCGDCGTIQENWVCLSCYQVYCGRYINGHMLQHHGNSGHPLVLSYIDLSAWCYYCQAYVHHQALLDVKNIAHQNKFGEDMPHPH

[11] = Half life in mouse at 400 mg/kg, ip; type: ADME, organism-based; conditions: in vivo
[12] = Stability in porcine plasma assessed as half life; type: ADME, cell-free, Sus scrofa; conditions: pig
[13] = Clearance in mouse at 400 mg/kg, ip; type: ADME, organism-based; conditions: in vivo
[14] = Tmax in mouse at 400 mg/kg, ip; type: ADME, organism-based; conditions: in vivo
[15] = tested on: N2a; experiment: Antialzheimer activity in mouse N2a cells overexpressing hAPP assessed as reduction in human amyloid beta 40 level at 1 to 5 uM incubated for 24 hrs by ELISA relative to control; type: functional; set-up: scale not given: the % may be the effect or the level left; conditions: dose 1-5 µM
[16] = Stability in rat liver microsomes assessed as half life; type: ADME, Microsome
[17] = Stability in human plasma assessed as half life; type: ADME, cell-free
[18] = Cmax in mouse at 400 mg/kg, ip; type: ADME, organism-based; set-up: dose 400 mg/kg, route ip; conditions: in vivo
[19] = Stability in mouse plasma assessed as half life; type: ADME, cell-free
[20] = Solubility of compound in PBS at pH 7.4 at 37 degreeC measured after 24 hrs; type: physicochemical
[21] = tested on: N2a; experiment: Antialzheimer activity in mouse N2a cells overexpressing hAPP assessed as reduction in human amyloid beta 42 level at 1 to 5 uM incubated for 24 hrs by ELISA relative to control; type: functional; set-up: scale not given: the % may be the effect or the level left; conditions: dose 1-5 µM
[22] = molecular target: T2, Histone deacetylase 8 (Homo sapiens, UniProt Q9BY41); experiment: Inhibition of human HDAC8 incubated for 90 mins by fluorescence assay
T2 sequence (Q9BY41 whole entry): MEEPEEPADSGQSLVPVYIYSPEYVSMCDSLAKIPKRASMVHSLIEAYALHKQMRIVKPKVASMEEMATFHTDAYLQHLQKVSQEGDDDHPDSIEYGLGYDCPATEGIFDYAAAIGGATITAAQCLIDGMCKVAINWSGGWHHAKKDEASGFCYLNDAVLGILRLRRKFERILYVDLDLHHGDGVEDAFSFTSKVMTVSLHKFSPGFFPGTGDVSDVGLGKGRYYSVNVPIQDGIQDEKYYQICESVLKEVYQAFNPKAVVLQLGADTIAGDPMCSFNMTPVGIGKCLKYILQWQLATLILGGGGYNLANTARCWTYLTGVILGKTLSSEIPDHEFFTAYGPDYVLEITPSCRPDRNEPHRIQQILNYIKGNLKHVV

[23] = molecular target: T3, Histone deacetylase 1 (Homo sapiens, UniProt Q13547); experiment: Inhibition of human HDAC1
[24] = molecular target: T1, Protein deacetylase HDAC6; experiment: Inhibition of human HDAC6
[25] = molecular target: T2, Histone deacetylase 8; experiment: Inhibition of human HDAC8 using FAM-labeled acetylated peptide as substrate incubated for 17 hrs by fluorescence based assay
[26] = molecular target: T1, Protein deacetylase HDAC6; experiment: Inhibition of human HDAC6 using FAM-labeled acetylated peptide as substrate incubated for 17 hrs by fluorescence based assay
[27] = molecular target: Histone deacetylase 2 (Homo sapiens, UniProt Q92769); experiment: Inhibition of human HDAC2 using FAM-labeled acetylated peptide as substrate incubated for 17 hrs by fluorescence based assay
[28] = molecular target: T4, Polyamine deacetylase HDAC10 (Homo sapiens, UniProt Q969S8); experiment: Inhibition of human HDAC10 using FAM-labeled acetylated peptide as substrate incubated for 17 hrs by fluorescence based assay
T4 sequence (Q969S8 whole entry): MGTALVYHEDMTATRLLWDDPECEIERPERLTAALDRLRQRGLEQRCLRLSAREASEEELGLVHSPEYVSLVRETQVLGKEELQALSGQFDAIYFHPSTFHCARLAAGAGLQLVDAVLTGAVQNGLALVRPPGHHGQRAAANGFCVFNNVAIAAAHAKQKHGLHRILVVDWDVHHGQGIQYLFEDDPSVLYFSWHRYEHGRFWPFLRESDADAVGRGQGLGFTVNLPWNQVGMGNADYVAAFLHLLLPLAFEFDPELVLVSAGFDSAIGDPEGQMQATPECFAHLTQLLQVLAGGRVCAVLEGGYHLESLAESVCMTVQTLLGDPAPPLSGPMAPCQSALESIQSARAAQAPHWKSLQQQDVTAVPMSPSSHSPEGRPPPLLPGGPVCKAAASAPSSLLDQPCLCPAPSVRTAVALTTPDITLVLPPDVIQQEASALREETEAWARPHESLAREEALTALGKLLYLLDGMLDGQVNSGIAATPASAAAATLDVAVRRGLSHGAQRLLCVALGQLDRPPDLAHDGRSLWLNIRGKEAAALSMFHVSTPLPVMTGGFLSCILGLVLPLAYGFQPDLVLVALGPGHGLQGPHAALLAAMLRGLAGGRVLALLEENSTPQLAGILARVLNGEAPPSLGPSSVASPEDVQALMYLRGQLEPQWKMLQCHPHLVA

[29] = molecular target: T3, Histone deacetylase 1; experiment: Inhibition of human HDAC1 using FAM-labeled acetylated peptide as substrate incubated for 17 hrs by fluorescence based assay
[30] = molecular target: Histone deacetylase 3 (Homo sapiens, UniProt O15379); experiment: Inhibition of human HDAC3 using FAM-labeled acetylated peptide as substrate incubated for 17 hrs by fluorescence based assay
[31] = molecular target: T5, Histone deacetylase 11 (Homo sapiens, UniProt Q96DB2); experiment: Inhibition of human recombinant HDAC11 incubated for 17 hrs
T5 sequence (Q96DB2 whole entry): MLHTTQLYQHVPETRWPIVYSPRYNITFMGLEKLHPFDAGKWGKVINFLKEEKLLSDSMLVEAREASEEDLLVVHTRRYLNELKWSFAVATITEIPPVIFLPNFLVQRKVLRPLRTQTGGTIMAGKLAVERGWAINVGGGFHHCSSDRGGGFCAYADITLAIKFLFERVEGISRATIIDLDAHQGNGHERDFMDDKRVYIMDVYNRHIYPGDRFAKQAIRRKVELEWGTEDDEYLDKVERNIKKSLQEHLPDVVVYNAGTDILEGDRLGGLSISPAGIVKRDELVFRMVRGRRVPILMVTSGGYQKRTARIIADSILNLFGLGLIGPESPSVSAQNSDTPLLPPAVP

[32] = molecular target: Histone deacetylase 4 (Homo sapiens, UniProt P56524); experiment: Inhibition of human recombinant HDAC4 incubated for 17 hrs
[33] = molecular target: T6, Histone deacetylase 7 (Homo sapiens, UniProt Q8WUI4); experiment: Inhibition of human recombinant HDAC7 incubated for 17 hrs
T6 sequence (Q8WUI4 whole entry): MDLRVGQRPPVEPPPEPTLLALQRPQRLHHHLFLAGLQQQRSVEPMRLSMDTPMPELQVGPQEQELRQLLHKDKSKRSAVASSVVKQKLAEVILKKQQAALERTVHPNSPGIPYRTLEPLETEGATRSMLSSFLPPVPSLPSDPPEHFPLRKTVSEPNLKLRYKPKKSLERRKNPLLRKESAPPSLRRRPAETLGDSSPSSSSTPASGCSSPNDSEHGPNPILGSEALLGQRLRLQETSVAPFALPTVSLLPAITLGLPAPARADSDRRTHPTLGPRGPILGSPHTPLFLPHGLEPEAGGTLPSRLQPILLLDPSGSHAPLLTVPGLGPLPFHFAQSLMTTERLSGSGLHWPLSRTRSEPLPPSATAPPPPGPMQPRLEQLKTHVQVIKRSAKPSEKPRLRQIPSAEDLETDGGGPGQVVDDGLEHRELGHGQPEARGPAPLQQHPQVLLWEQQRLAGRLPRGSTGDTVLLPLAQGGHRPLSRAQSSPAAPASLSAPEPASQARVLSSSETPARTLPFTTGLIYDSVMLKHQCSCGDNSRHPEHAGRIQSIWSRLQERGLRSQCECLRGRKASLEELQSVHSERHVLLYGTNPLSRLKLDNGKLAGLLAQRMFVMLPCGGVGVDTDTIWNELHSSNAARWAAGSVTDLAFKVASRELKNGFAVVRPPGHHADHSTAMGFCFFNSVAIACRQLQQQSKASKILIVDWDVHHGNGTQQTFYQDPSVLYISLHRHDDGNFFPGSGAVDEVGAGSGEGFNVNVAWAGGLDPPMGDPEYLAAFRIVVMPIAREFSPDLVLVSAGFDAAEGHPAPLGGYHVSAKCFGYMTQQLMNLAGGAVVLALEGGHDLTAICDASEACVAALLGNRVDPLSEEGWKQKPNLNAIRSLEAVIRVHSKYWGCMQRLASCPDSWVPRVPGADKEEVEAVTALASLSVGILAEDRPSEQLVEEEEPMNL

T3 sequence (Q13547 whole entry): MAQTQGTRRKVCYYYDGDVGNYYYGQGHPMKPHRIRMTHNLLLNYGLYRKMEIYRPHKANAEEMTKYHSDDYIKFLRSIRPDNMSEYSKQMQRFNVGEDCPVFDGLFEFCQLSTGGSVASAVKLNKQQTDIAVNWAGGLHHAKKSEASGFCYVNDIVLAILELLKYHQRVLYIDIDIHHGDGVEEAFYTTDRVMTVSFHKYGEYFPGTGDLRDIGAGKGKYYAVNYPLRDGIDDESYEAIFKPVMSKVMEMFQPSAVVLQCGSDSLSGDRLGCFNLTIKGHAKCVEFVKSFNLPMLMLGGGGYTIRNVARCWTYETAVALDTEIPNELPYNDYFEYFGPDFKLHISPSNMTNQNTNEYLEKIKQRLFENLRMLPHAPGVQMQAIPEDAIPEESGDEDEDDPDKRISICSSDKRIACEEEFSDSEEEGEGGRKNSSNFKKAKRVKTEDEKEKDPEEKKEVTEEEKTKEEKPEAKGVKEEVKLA
Histone deacetylase 4, sequence (P56524 whole entry): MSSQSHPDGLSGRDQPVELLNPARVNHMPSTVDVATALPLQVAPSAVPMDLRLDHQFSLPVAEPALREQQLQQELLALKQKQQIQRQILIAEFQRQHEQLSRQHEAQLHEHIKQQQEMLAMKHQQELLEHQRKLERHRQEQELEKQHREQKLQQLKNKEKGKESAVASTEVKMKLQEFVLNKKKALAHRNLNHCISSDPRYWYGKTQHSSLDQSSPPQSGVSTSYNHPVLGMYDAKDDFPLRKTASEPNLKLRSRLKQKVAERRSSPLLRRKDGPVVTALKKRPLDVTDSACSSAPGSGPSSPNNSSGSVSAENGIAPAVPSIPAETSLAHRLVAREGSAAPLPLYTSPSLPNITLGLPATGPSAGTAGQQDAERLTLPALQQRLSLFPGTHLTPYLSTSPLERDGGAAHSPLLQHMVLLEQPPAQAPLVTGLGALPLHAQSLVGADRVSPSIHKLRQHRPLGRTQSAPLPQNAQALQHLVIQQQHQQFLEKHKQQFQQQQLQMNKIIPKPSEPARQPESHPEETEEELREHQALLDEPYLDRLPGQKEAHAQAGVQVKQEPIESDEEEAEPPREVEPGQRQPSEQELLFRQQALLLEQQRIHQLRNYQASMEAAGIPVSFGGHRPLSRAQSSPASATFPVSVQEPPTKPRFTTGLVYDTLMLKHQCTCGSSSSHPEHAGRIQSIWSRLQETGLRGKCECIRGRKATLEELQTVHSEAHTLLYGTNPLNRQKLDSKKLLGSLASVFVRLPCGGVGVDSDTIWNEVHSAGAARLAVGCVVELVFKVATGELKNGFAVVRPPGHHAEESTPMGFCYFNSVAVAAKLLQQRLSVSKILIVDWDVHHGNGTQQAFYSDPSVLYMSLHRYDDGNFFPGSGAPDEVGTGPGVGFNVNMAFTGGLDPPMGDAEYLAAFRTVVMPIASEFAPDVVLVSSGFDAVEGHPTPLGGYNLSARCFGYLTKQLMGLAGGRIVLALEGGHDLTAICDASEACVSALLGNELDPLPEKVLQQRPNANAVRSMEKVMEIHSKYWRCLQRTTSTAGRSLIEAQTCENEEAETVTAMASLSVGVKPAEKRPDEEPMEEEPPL
Histone deacetylase 3, sequence (O15379 whole entry): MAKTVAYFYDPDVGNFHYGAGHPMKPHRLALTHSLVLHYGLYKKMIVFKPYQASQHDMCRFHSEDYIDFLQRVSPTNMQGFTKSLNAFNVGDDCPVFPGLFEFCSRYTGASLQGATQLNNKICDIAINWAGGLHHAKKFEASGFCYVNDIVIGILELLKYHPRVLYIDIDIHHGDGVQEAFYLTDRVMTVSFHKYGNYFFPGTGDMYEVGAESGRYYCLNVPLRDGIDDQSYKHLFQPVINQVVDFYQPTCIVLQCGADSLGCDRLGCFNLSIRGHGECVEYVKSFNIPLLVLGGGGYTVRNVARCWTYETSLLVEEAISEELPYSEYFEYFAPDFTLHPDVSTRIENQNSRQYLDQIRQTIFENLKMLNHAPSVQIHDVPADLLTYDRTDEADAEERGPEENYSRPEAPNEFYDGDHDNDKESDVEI
Histone deacetylase 2, sequence (Q92769 whole entry): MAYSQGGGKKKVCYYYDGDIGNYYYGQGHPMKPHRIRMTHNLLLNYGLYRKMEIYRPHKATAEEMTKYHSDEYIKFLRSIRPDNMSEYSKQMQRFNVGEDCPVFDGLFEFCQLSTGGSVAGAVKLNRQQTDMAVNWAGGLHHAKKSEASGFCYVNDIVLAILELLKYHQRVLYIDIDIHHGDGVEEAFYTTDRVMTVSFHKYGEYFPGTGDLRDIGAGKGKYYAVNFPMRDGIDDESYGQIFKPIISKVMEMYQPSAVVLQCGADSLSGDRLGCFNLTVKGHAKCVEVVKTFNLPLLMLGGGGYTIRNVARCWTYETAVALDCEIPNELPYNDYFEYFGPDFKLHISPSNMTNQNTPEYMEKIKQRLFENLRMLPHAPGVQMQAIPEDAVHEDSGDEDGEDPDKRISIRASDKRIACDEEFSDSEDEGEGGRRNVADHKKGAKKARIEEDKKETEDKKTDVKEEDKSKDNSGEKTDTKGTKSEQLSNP

Compound: O=C(CS)NCCCCCC(=O)Nc1cccc2cccnc12
- AUC [1]: 4.97 µM·h
- half-life [2]: 1.53 h
- Activity [3]: 20%
- half-life [4]: 1.2 h
- solubility at 24 h [5]: 1000 µg/mL (≈ 3020 µM)
- Papp B→A [6]: 24.7 ×10⁻⁶ cm/s
- half-life [7]: 1.38 h
- Papp A→B [8]: 15 ×10⁻⁶ cm/s
- logD [9]: 2.64
- IC50 [10]: 0.02 µM
- half-life [11]: 2.2 h
- half-life [12]: 1.15 h
- CL/F [13]: 67.5 mL/min
- Tmax [14]: 0.5 h
- Activity [15]: 20%
- half-life [16]: 1.1 h
- half-life [17]: 1.32 h
- Cmax [18]: 1810 nM
- half-life [19]: 0.967 h
- solubility at 24 h [20]: 150 µg/mL (≈ 453 µM)
- Activity [21]: 20%

Compound: O=C(CS)NCCCCCC(=O)Nc1ccccc1
- IC50 [22]: 200 µM

Compound: N[C@@H](Cc1c[nH]c2ccccc12)C(=O)Nc1ccccc1-c1ccc(NC(=O)CCCCCNC(=O)CS)cc1
- IC50 [25]: 11.3 µM
- IC50 [26]: 0.66 µM
- IC50 [27]: > 30 µM
- IC50 [28]: > 30 µM
- IC50 [29]: 7.09 µM
- IC50 [30]: 4.33 µM

Other lines, results leading:

- IC50 [23]: 2.2 µM
- IC50 [24]: 0.1 µM
Compound: O=C(/C=C/c1ccccc1Cl)NO

- IC50 [31]: 0.432 µM
- IC50 [32]: > 30 µM
- IC50 [33]: > 30 µM
Compound: Nc1ccc(F)cc1NC(=O)c1ccc(CNC(=O)/C=C/c2cccnc2)cc1
